From paper PMC10692721, “Drug discovery for heart failure targeting myosin-binding protein C” (The Journal of Biological Chemistry, 2023) come the findings set out here.

One experiment deals with TMR-cC0-C2. Briefly: Selleck library HTS, 532 nm excitation (FLT of TMR-cC0-C2 in presence of FMAL-actin). The following applies: for 532-nm Δτ, Repeat 1 / 532-nm Δτ, Repeat 2: initial screen, 30 μM compound; for 532-nm z-score (based on avg Δτ): robust z-score, hit threshold ±4, 30 μM compound. It counts as binding, human. The method, then:
(§1) Fluorescence lifetime (FLT) measurements were acquired using a high-throughput FLT plate reader (Fluorescence Innovations, Inc) ([14], [27]), provided by Photonic Pharma LLC. […] The observed waveforms were analyzed as described previously ([15], [28]).
(§2) In total, 50 nl of each solution was dispensed in DMSO using an automated Echo 550 acoustic liquid dispenser (Labcyte). Compounds were formatted into the assay plates, at a final concentration of 30 μM, with the first two and second to last columns loaded with DMSO only (compound-free controls). In the final column, 30 μM of suramin was loaded as a positive control (tool compound). These assay plates were then heat-sealed using a PlateLoc Thermal Microplate Sealer (Agilent Technologies) and stored at −20 °C. Before screening, compound plates were equilibrated to room temperature (∼25 °C). […] Plates were incubated at room temperature for 60 min before recording the data with the fluorescence lifetime plate reader.
Hits that exceeded the z-score hit criteria in the donor-only screen were excluded from consideration. To remove compounds with confounding fluorescence properties, a similarity index (SI, specifically the cosine distance, Equation 5) was computed using data from the SUPR instrument by comparing a region (500–540 nm) of the donor-only spectrum (I^(a)) for each well to that of the plate-wide average DMSO spectrum (I^(b)) in the same wavelength band ([29]). Compounds that exceeded an SI robust z-score of 4 were deemed likely fluorescent compounds and removed from consideration.(5) SI=1−∑Ii(a).Ii(b)/∑Ii(a).Ii(a)∑Ii(b).Ii(b)

Experiment [1] deals with FMAL-actin plus TMR-cC0-C2. Briefly: Selleck library HTS, 473 nm excitation (FLT of FMAL-actin with TMR-cC0-C2, FLT-FRET). It counts as binding, human. To be noted: for 473-nm Δτ, Repeat 1 / 473-nm Δτ, Repeat 2: initial screen, 30 μM compound; for 473-nm z-score (based on avg Δτ): robust z-score, hit threshold ±4, 30 μM compound. As to the method: as §1, §2
After fitting the waveforms with a single exponential decay to quantify donor FLT, the change in FLT (Δτ) was computed by performing a moving median subtraction in the order the plate was scanned with a window size of half a plate row […]. The reasons for this are twofold. Firstly, plate gradients are often observed due to the heating of the digitizer during acquisition.
To account for the necessity to correct for plate gradients in the computation of E, the median τDMSO prior to the application of the moving median correction was added to each well’s Δτ value to recover a rescaled value of τ.

Turning to `CC1(C)S[C@@H]2[C@H](NC(=O)[C@H](N)c3ccccc3)C(=O)N2[C@H]1C(=O)O` [Ampicillin sodium], in the experiment with TMR-cC0-C2, the “532-nm Δτ, Repeat 1” value amounted to 0.003 ns; the “532-nm Δτ, Repeat 2” value was 0.007 ns; the “532-nm z-score (based on avg Δτ)” value is on record as 0.34. Further, in experiment [1], the “473-nm Δτ, Repeat 1” value was determined as 0.184 ns; the “473-nm Δτ, Repeat 2” value is on record as 0.161 ns; the “473-nm z-score (based on avg Δτ)” value was 9.70.
On to `C[C@H](CCC(=O)O)[C@H]1CC[C@H]2[C@@H]3C[C@H](O)[C@@H]4C[C@H](O)CC[C@]4(C)[C@H]3CC[C@]12C` [Hyodeoxycholic acid (HDCA), Hyodeoxycholic acid], for which, in the experiment on TMR-cC0-C2, the “532-nm Δτ, Repeat 1” value is on record as -0.021 ns; the “532-nm Δτ, Repeat 2” value is -0.120 ns; the “532-nm z-score (based on avg Δτ)” value is given as -4.27. In addition, in experiment [1], the “473-nm Δτ, Repeat 1” value turned out to be 0.111 ns; the “473-nm Δτ, Repeat 2” value was 0.072 ns; the “473-nm z-score (based on avg Δτ)” value is 5.17.
As to `CCC(=O)c1c(O)cc(O)cc1O` [Flopropione], in the experiment on TMR-cC0-C2, the “532-nm Δτ, Repeat 1” value is given as -0.062 ns; the “532-nm Δτ, Repeat 2” value was -0.073 ns; the “532-nm z-score (based on avg Δτ)” value is on record as -4.10. Besides, in experiment [1], the “473-nm Δτ, Repeat 1” value is on record as -0.335 ns; the “473-nm Δτ, Repeat 2” value is listed as -0.210 ns; the “473-nm z-score (based on avg Δτ)” value is given as -15.21.
Consider `CO[C@@]1(NC(=O)C(C(=O)O)c2ccc(O)cc2)C(=O)N2C(C(=O)O)=C(CSc3nnnn3C)CO[C@@H]21` (stereo partly drawn) [Latamoxef sodium], for which, in the experiment on TMR-cC0-C2, the “532-nm Δτ, Repeat 1” value is recorded as -0.050 ns; the “532-nm Δτ, Repeat 2” value was -0.037 ns; the “532-nm z-score (based on avg Δτ)” value is given as -2.62. Besides, in experiment [1], the “473-nm Δτ, Repeat 1” value stood at 0.128 ns; the “473-nm Δτ, Repeat 2” value is 0.049 ns; the “473-nm z-score (based on avg Δτ)” value is listed as 4.99.
Take Heparin sodium: in the experiment on TMR-cC0-C2, the “532-nm Δτ, Repeat 1” value is -0.052 ns; the “532-nm Δτ, Repeat 2” value is given as -0.051 ns; the “532-nm z-score (based on avg Δτ)” value is reported as -3.09. For the same molecule, in experiment [1], the “473-nm Δτ, Repeat 1” value is 0.440 ns; the “473-nm Δτ, Repeat 2” value turned out to be 0.363 ns; the “473-nm z-score (based on avg Δτ)” value was determined as 22.49.
Regarding `C[n+]1cc2c3c(ccc2c2ccc4cc5c(cc4c21)OCO5)OCO3` [Sanguinarine chloride], in the experiment on TMR-cC0-C2, the “532-nm Δτ, Repeat 1” value is given as -0.160 ns; the “532-nm Δτ, Repeat 2” value was -0.020 ns; the “532-nm z-score (based on avg Δτ)” value is -5.46. In experiment [1], the “473-nm Δτ, Repeat 1” value is reported as -0.105 ns; the “473-nm Δτ, Repeat 2” value was -0.086 ns; the “473-nm z-score (based on avg Δτ)” value is on record as -5.31.
`COc1cc2nc(N3CCN(C(=O)C4COc5ccccc5O4)CC3)nc(N)c2cc1OC` (stereo not drawn) [Doxazosin]: in the experiment with TMR-cC0-C2, the “532-nm Δτ, Repeat 1” value was found to be 0.125 ns; the “532-nm Δτ, Repeat 2” value turned out to be 0.126 ns; the “532-nm z-score (based on avg Δτ)” value came out at 7.70. Further, in experiment [1], the “473-nm Δτ, Repeat 1” value is listed as -0.266 ns; the “473-nm Δτ, Repeat 2” value is recorded as -0.231 ns; the “473-nm z-score (based on avg Δτ)” value is on record as -13.87.
As to `C=CC1=C(C)c2cc3[nH]c(cc4nc(cc5[nH]c(cc1n2)c(C)c5CCC(=O)O)C(CCC(=O)O)=C4C)c(C)c3C=C` [Protoporphyrin IX], in the experiment with TMR-cC0-C2, the “532-nm Δτ, Repeat 1” value stood at 0.067 ns; the “532-nm Δτ, Repeat 2” value is listed as 0.016 ns; the “532-nm z-score (based on avg Δτ)” value amounted to 2.58. In experiment [1], the “473-nm Δτ, Repeat 1” value was determined as 0.144 ns; the “473-nm Δτ, Repeat 2” value turned out to be 0.076 ns; the “473-nm z-score (based on avg Δτ)” value is 6.21.
As to `CONC(=O)Nc1ccc(-c2sc3c(c2CN(C)C)c(=O)n(-c2ccc(OC)nn2)c(=O)n3Cc2c(F)cccc2F)cc1` [Relugolix], in the experiment on TMR-cC0-C2, the “532-nm Δτ, Repeat 1” value was -0.169 ns; the “532-nm Δτ, Repeat 2” value is on record as -0.015 ns; the “532-nm z-score (based on avg Δτ)” value is -5.58. In experiment [1], the “473-nm Δτ, Repeat 1” value is listed as 0.366 ns; the “473-nm Δτ, Repeat 2” value is on record as -0.004 ns; the “473-nm z-score (based on avg Δτ)” value worked out at 10.15.
On to `CC1(C)[C@@H](O[C@H]2O[C@H](C(=O)O)[C@@H](O)[C@H](O)[C@H]2O[C@@H]2O[C@H](C(=O)O)[C@@H](O)[C@H](O)[C@H]2O)CC[C@]2(C)[C@H]3C(=O)C=C4[C@@H]5C[C@@](C)(C(=O)O)CC[C@]5(C)CC[C@@]4(C)[C@]3(C)CC[C@@H]12.N.N` [Diammonium glycyrrhizinate], for which, in the experiment on TMR-cC0-C2, the “532-nm Δτ, Repeat 1” value amounted to 0.022 ns; the “532-nm Δτ, Repeat 2” value stood at 0.017 ns; the “532-nm z-score (based on avg Δτ)” value was 1.22. In experiment [1], the “473-nm Δτ, Repeat 1” value came to 0.077 ns; the “473-nm Δτ, Repeat 2” value is 0.080 ns; the “473-nm z-score (based on avg Δτ)” value was determined as 4.42.
Turning to `COc1ccc(CN(CCN(C)C)c2ncccn2)cc1` [Thonzylamine], in the experiment on TMR-cC0-C2, the “532-nm Δτ, Repeat 1” value is -0.034 ns; the “532-nm Δτ, Repeat 2” value was -0.382 ns; the “532-nm z-score (based on avg Δτ)” value is -12.66. Further, in experiment [1], the “473-nm Δτ, Repeat 1” value turned out to be 0.012 ns; the “473-nm Δτ, Repeat 2” value is -0.449 ns; the “473-nm z-score (based on avg Δτ)” value is -12.17.
For the molecule `O=C(c1ccc(OCCN2CCCCC2)cc1)c1c(-c2ccc(O)cc2)sc2cc(O)ccc12` [Raloxifene], in the experiment on TMR-cC0-C2, the “532-nm Δτ, Repeat 1” value is -0.025 ns; the “532-nm Δτ, Repeat 2” value is reported as -0.147 ns; the “532-nm z-score (based on avg Δτ)” value is -5.22. Besides, in experiment [1], the “473-nm Δτ, Repeat 1” value is listed as -0.490 ns; the “473-nm Δτ, Repeat 2” value is given as -0.307 ns; the “473-nm z-score (based on avg Δτ)” value is on record as -22.27.
`CCOC(=O)[C@@H](N)Cc1ccc(-c2cc(O[C@H](c3ccc(Cl)cc3-n3ccc(C)n3)C(F)(F)F)nc(N)n2)cc1` [Telotristat etiprate (LX 1606 Hippurate), Telotristat etiprate]: in the experiment on TMR-cC0-C2, the “532-nm Δτ, Repeat 1” value came to 0.064 ns; the “532-nm Δτ, Repeat 2” value came out at 0.093 ns; the “532-nm z-score (based on avg Δτ)” value amounted to 4.83. Also, in experiment [1], the “473-nm Δτ, Repeat 1” value is on record as -0.136 ns; the “473-nm Δτ, Repeat 2” value is recorded as -0.122 ns; the “473-nm z-score (based on avg Δτ)” value is listed as -7.19.
`Nc1ccc2cc3ccc(N)cc3nc2c1` [Proflavine hemisulfate]: in the experiment with TMR-cC0-C2, the “532-nm Δτ, Repeat 1” value is listed as -0.016 ns; the “532-nm Δτ, Repeat 2” value was -0.080 ns; the “532-nm z-score (based on avg Δτ)” value is -2.91. In experiment [1], the “473-nm Δτ, Repeat 1” value was 0.430 ns; the “473-nm Δτ, Repeat 2” value is recorded as 0.337 ns; the “473-nm z-score (based on avg Δτ)” value amounted to 21.48.
Take `CC1=NN(c2ccc(C)c(C)c2)C(=O)/C1=N\Nc1cccc(-c2cccc(C(=O)O)c2)c1O` [Eltrombopag olamine]: in the experiment on TMR-cC0-C2, the “532-nm Δτ, Repeat 1” value is given as -0.267 ns; the “532-nm Δτ, Repeat 2” value is recorded as -0.418 ns; the “532-nm z-score (based on avg Δτ)” value was -20.87. In experiment [1], the “473-nm Δτ, Repeat 1” value is listed as 0.270 ns; the “473-nm Δτ, Repeat 2” value stood at 0.162 ns; the “473-nm z-score (based on avg Δτ)” value is given as 12.13.
Regarding `Cc1ccc(NC(=O)c2ccc(CN3CCN(C)CC3)cc2)cc1Nc1nc(-c2cccnc2)cs1` [Masitinib (AB1010), Masitinib], in the experiment on TMR-cC0-C2, the “532-nm Δτ, Repeat 1” value is -0.071 ns; the “532-nm Δτ, Repeat 2” value is recorded as -0.082 ns; the “532-nm z-score (based on avg Δτ)” value is on record as -4.66. In experiment [1], the “473-nm Δτ, Repeat 1” value is -0.336 ns; the “473-nm Δτ, Repeat 2” value was -0.197 ns; the “473-nm z-score (based on avg Δτ)” value was -14.87.
